The record followed here is ChEMBL document CHEMBL5625277, “Systematical mutational analysis of teriparatide on anti-osteoporosis activity by alanine scanning” (Bioorg Med Chem Lett, 2024).

A short description of the series: Cytotoxicity in pre-osteoblasts (unknown origin) assessed as cell death upto 5 uM by CCK8 assay. The class given is toxicity, cell-based. Conditions: pre-osteoblast.

In the case of `CC[C@H](C)[C@H](NC(=O)[C@H](CCC(=O)O)NC(=O)[C@H](CO)NC(=O)[C@@H](NC(=O)[C@H](CO)NC(C)=O)C(C)C)C(=O)N[C@@H](CCC(N)=O)C(=O)N[C@@H](CC(C)C)C(=O)N[C@@H](CCSC)C(=O)N[C@@H](Cc1cnc[nH]1)C(=O)N[C@@H](CC(N)=O)C(=O)N[C@@H](C)C(=O)NCC(=O)N[C@@H](CCCCN)C(=O)N[C@@H](Cc1cnc[nH]1)C(=O)N[C@@H](CC(C)C)C(=O)N[C@@H](CC(N)=O)C(=O)N[C@@H](CO)C(=O)N[C@@H](CCSC)C(=O)N[C@@H](CCC(=O)O)C(=O)N[C@@H](CCCNC(=N)N)C(=O)N[C@H](C(=O)N[C@@H](CCC(=O)O)C(=O)N[C@@H](Cc1c[nH]c2ccccc12)C(=O)N[C@@H](CC(C)C)C(=O)N[C@@H](CCCNC(=N)N)C(=O)N[C@@H](CCCCN)C(=O)N[C@@H](CCCCN)C(=O)N[C@@H](CC(C)C)C(=O)N[C@@H](CCC(N)=O)C(=O)N[C@@H](CC(=O)O)C(=O)N[C@H](C(=O)N[C@@H](Cc1cnc[nH]1)C(=O)N[C@@H](CC(N)=O)C(=O)N[C@@H](Cc1ccccc1)C(N)=O)C(C)C)C(C)C`, the Activity entry was “Non-Toxic”.

Regarding `CC[C@H](C)[C@H](NC(=O)[C@H](CCC(=O)O)NC(=O)[C@H](CO)NC(=O)[C@@H](NC(=O)[C@H](CO)NC(C)=O)C(C)C)C(=O)N[C@@H](CCC(N)=O)C(=O)N[C@@H](CC(C)C)C(=O)N[C@@H](CCSC)C(=O)N[C@@H](Cc1cnc[nH]1)C(=O)N[C@@H](CC(N)=O)C(=O)N[C@@H](CC(C)C)C(=O)NCC(=O)N[C@@H](CCCCN)C(=O)N[C@@H](Cc1cnc[nH]1)C(=O)N[C@@H](CC(C)C)C(=O)N[C@@H](CC(N)=O)C(=O)N[C@@H](CO)C(=O)N[C@@H](CCSC)C(=O)N[C@@H](CCC(=O)O)C(=O)N[C@@H](CCCNC(=N)N)C(=O)N[C@H](C(=O)N[C@@H](C)C(=O)N[C@@H](Cc1c[nH]c2ccccc12)C(=O)N[C@@H](CC(C)C)C(=O)N[C@@H](CCCNC(=N)N)C(=O)N[C@@H](CCCCN)C(=O)N[C@@H](CCCCN)C(=O)N[C@@H](CC(C)C)C(=O)N[C@@H](CCC(N)=O)C(=O)N[C@@H](CC(=O)O)C(=O)N[C@H](C(=O)N[C@@H](Cc1cnc[nH]1)C(=O)N[C@@H](CC(N)=O)C(=O)N[C@@H](Cc1ccccc1)C(N)=O)C(C)C)C(C)C`, the Activity result is given as “Non-Toxic”.

Consider `CSCC[C@H](NC(=O)[C@H](CC(C)C)NC(=O)[C@H](CCC(N)=O)NC(=O)[C@H](C)NC(=O)[C@H](CCC(=O)O)NC(=O)[C@H](CO)NC(=O)[C@@H](NC(=O)[C@H](CO)NC(C)=O)C(C)C)C(=O)N[C@@H](Cc1cnc[nH]1)C(=O)N[C@@H](CC(N)=O)C(=O)N[C@@H](CC(C)C)C(=O)NCC(=O)N[C@@H](CCCCN)C(=O)N[C@@H](Cc1cnc[nH]1)C(=O)N[C@@H](CC(C)C)C(=O)N[C@@H](CC(N)=O)C(=O)N[C@@H](CO)C(=O)N[C@@H](CCSC)C(=O)N[C@@H](CCC(=O)O)C(=O)N[C@@H](CCCNC(=N)N)C(=O)N[C@H](C(=O)N[C@@H](CCC(=O)O)C(=O)N[C@@H](Cc1c[nH]c2ccccc12)C(=O)N[C@@H](CC(C)C)C(=O)N[C@@H](CCCNC(=N)N)C(=O)N[C@@H](CCCCN)C(=O)N[C@@H](CCCCN)C(=O)N[C@@H](CC(C)C)C(=O)N[C@@H](CCC(N)=O)C(=O)N[C@@H](CC(=O)O)C(=O)N[C@H](C(=O)N[C@@H](Cc1cnc[nH]1)C(=O)N[C@@H](CC(N)=O)C(=O)N[C@@H](Cc1ccccc1)C(N)=O)C(C)C)C(C)C`, for which the Activity entry is “Non-Toxic”.

With `CC[C@H](C)[C@H](NC(=O)[C@H](CCC(=O)O)NC(=O)[C@H](CO)NC(=O)[C@@H](NC(=O)[C@H](CO)NC(C)=O)C(C)C)C(=O)N[C@@H](CCC(N)=O)C(=O)N[C@@H](CC(C)C)C(=O)N[C@@H](CCSC)C(=O)N[C@@H](Cc1cnc[nH]1)C(=O)N[C@@H](CC(N)=O)C(=O)N[C@@H](CC(C)C)C(=O)NCC(=O)N[C@@H](CCCCN)C(=O)N[C@@H](Cc1cnc[nH]1)C(=O)N[C@@H](CC(C)C)C(=O)N[C@@H](CC(N)=O)C(=O)N[C@@H](CO)C(=O)N[C@@H](CCSC)C(=O)N[C@@H](CCC(=O)O)C(=O)N[C@@H](CCCNC(=N)N)C(=O)N[C@H](C(=O)N[C@@H](CCC(=O)O)C(=O)N[C@@H](Cc1c[nH]c2ccccc12)C(=O)N[C@@H](CC(C)C)C(=O)N[C@@H](CCCNC(=N)N)C(=O)N[C@@H](CCCCN)C(=O)N[C@@H](CCCCN)C(=O)N[C@@H](C)C(=O)N[C@@H](CCC(N)=O)C(=O)N[C@@H](CC(=O)O)C(=O)N[C@H](C(=O)N[C@@H](Cc1cnc[nH]1)C(=O)N[C@@H](CC(N)=O)C(=O)N[C@@H](Cc1ccccc1)C(N)=O)C(C)C)C(C)C`, the Activity entry is “Non-Toxic”.

For the compound `CC[C@H](C)[C@H](NC(=O)[C@H](CCC(=O)O)NC(=O)[C@H](CO)NC(=O)[C@@H](NC(=O)[C@H](CO)NC(C)=O)C(C)C)C(=O)N[C@@H](C)C(=O)N[C@@H](CC(C)C)C(=O)N[C@@H](CCSC)C(=O)N[C@@H](Cc1cnc[nH]1)C(=O)N[C@@H](CC(N)=O)C(=O)N[C@@H](CC(C)C)C(=O)NCC(=O)N[C@@H](CCCCN)C(=O)N[C@@H](Cc1cnc[nH]1)C(=O)N[C@@H](CC(C)C)C(=O)N[C@@H](CC(N)=O)C(=O)N[C@@H](CO)C(=O)N[C@@H](CCSC)C(=O)N[C@@H](CCC(=O)O)C(=O)N[C@@H](CCCNC(=N)N)C(=O)N[C@H](C(=O)N[C@@H](CCC(=O)O)C(=O)N[C@@H](Cc1c[nH]c2ccccc12)C(=O)N[C@@H](CC(C)C)C(=O)N[C@@H](CCCNC(=N)N)C(=O)N[C@@H](CCCCN)C(=O)N[C@@H](CCCCN)C(=O)N[C@@H](CC(C)C)C(=O)N[C@@H](CCC(N)=O)C(=O)N[C@@H](CC(=O)O)C(=O)N[C@H](C(=O)N[C@@H](Cc1cnc[nH]1)C(=O)N[C@@H](CC(N)=O)C(=O)N[C@@H](Cc1ccccc1)C(N)=O)C(C)C)C(C)C`, the Activity result is “Non-Toxic”.

With `CC[C@H](C)[C@H](NC(=O)[C@H](CCC(=O)O)NC(=O)[C@H](CO)NC(=O)[C@@H](NC(=O)[C@H](CO)NC(C)=O)C(C)C)C(=O)N[C@@H](CCC(N)=O)C(=O)N[C@@H](CC(C)C)C(=O)N[C@@H](CCSC)C(=O)N[C@@H](Cc1cnc[nH]1)C(=O)N[C@@H](CC(N)=O)C(=O)N[C@@H](CC(C)C)C(=O)NCC(=O)N[C@@H](CCCCN)C(=O)N[C@@H](Cc1cnc[nH]1)C(=O)N[C@@H](CC(C)C)C(=O)N[C@@H](CC(N)=O)C(=O)N[C@@H](CO)C(=O)N[C@@H](CCSC)C(=O)N[C@@H](CCC(=O)O)C(=O)N[C@@H](CCCNC(=N)N)C(=O)N[C@H](C(=O)N[C@@H](CCC(=O)O)C(=O)N[C@@H](Cc1c[nH]c2ccccc12)C(=O)N[C@@H](CC(C)C)C(=O)N[C@@H](CCCNC(=N)N)C(=O)N[C@@H](CCCCN)C(=O)N[C@@H](CCCCN)C(=O)N[C@@H](CC(C)C)C(=O)N[C@@H](CCC(N)=O)C(=O)N[C@@H](CC(=O)O)C(=O)N[C@@H](C)C(=O)N[C@@H](Cc1cnc[nH]1)C(=O)N[C@@H](CC(N)=O)C(=O)N[C@@H](Cc1ccccc1)C(N)=O)C(C)C`, the Activity entry is “Non-Toxic”.

As to `CC[C@H](C)[C@H](NC(=O)[C@H](CCC(=O)O)NC(=O)[C@H](CO)NC(=O)[C@@H](NC(=O)[C@H](CO)NC(C)=O)C(C)C)C(=O)N[C@@H](CCC(N)=O)C(=O)N[C@@H](CC(C)C)C(=O)N[C@@H](CCSC)C(=O)N[C@@H](Cc1cnc[nH]1)C(=O)N[C@@H](CC(N)=O)C(=O)N[C@@H](CC(C)C)C(=O)NCC(=O)N[C@@H](CCCCN)C(=O)N[C@@H](Cc1cnc[nH]1)C(=O)N[C@@H](CC(C)C)C(=O)N[C@@H](CC(N)=O)C(=O)N[C@@H](CO)C(=O)N[C@@H](CCSC)C(=O)N[C@@H](CCC(=O)O)C(=O)N[C@@H](CCCNC(=N)N)C(=O)N[C@H](C(=O)N[C@@H](CCC(=O)O)C(=O)N[C@@H](Cc1c[nH]c2ccccc12)C(=O)N[C@@H](CC(C)C)C(=O)N[C@@H](C)C(=O)N[C@@H](CCCCN)C(=O)N[C@@H](CCCCN)C(=O)N[C@@H](CC(C)C)C(=O)N[C@@H](CCC(N)=O)C(=O)N[C@@H](CC(=O)O)C(=O)N[C@H](C(=O)N[C@@H](Cc1cnc[nH]1)C(=O)N[C@@H](CC(N)=O)C(=O)N[C@@H](Cc1ccccc1)C(N)=O)C(C)C)C(C)C`, the Activity result is recorded as “Non-Toxic”.

On to `CC[C@H](C)[C@H](NC(=O)[C@H](CCC(=O)O)NC(=O)[C@H](CO)NC(=O)[C@@H](NC(=O)[C@H](CO)NC(C)=O)C(C)C)C(=O)N[C@@H](CCC(N)=O)C(=O)N[C@@H](CC(C)C)C(=O)N[C@@H](CCSC)C(=O)N[C@@H](Cc1cnc[nH]1)C(=O)N[C@@H](CC(N)=O)C(=O)N[C@@H](CC(C)C)C(=O)NCC(=O)N[C@@H](CCCCN)C(=O)N[C@@H](Cc1cnc[nH]1)C(=O)N[C@@H](CC(C)C)C(=O)N[C@@H](CC(N)=O)C(=O)N[C@@H](CO)C(=O)N[C@@H](CCSC)C(=O)N[C@@H](CCC(=O)O)C(=O)N[C@@H](CCCNC(=N)N)C(=O)N[C@H](C(=O)N[C@@H](CCC(=O)O)C(=O)N[C@@H](Cc1c[nH]c2ccccc12)C(=O)N[C@@H](CC(C)C)C(=O)N[C@@H](CCCNC(=N)N)C(=O)N[C@@H](CCCCN)C(=O)N[C@@H](CCCCN)C(=O)N[C@@H](CC(C)C)C(=O)N[C@@H](C)C(=O)N[C@@H](CC(=O)O)C(=O)N[C@H](C(=O)N[C@@H](Cc1cnc[nH]1)C(=O)N[C@@H](CC(N)=O)C(=O)N[C@@H](Cc1ccccc1)C(N)=O)C(C)C)C(C)C`, for which the Activity result is recorded as “Non-Toxic”.

As for `CC[C@H](C)[C@H](NC(=O)[C@H](CCC(=O)O)NC(=O)[C@H](CO)NC(=O)[C@@H](NC(=O)[C@H](CO)NC(C)=O)C(C)C)C(=O)N[C@@H](CCC(N)=O)C(=O)N[C@@H](C)C(=O)N[C@@H](CCSC)C(=O)N[C@@H](Cc1cnc[nH]1)C(=O)N[C@@H](CC(N)=O)C(=O)N[C@@H](CC(C)C)C(=O)NCC(=O)N[C@@H](CCCCN)C(=O)N[C@@H](Cc1cnc[nH]1)C(=O)N[C@@H](CC(C)C)C(=O)N[C@@H](CC(N)=O)C(=O)N[C@@H](CO)C(=O)N[C@@H](CCSC)C(=O)N[C@@H](CCC(=O)O)C(=O)N[C@@H](CCCNC(=N)N)C(=O)N[C@H](C(=O)N[C@@H](CCC(=O)O)C(=O)N[C@@H](Cc1c[nH]c2ccccc12)C(=O)N[C@@H](CC(C)C)C(=O)N[C@@H](CCCNC(=N)N)C(=O)N[C@@H](CCCCN)C(=O)N[C@@H](CCCCN)C(=O)N[C@@H](CC(C)C)C(=O)N[C@@H](CCC(N)=O)C(=O)N[C@@H](CC(=O)O)C(=O)N[C@H](C(=O)N[C@@H](Cc1cnc[nH]1)C(=O)N[C@@H](CC(N)=O)C(=O)N[C@@H](Cc1ccccc1)C(N)=O)C(C)C)C(C)C`, the Activity result is listed as “Non-Toxic”.
